{
  "source": "patent US7541380B2",
  "about": "“Use of rapamycin and structural analogues thereof” (Universita' Degli Studi do Ferrara, priority 2002, dated 2009)",
  "key": {"mRNA for gamma-globin [1]": {"test_system": "mRNA for gamma-globin", "experiment": "Quantitative RT-PCR of mRNA for gamma-globin in human erythroid precursors isolated from peripheral blood (two-stage culture of Fibach et al.)", "assay_type": "cell-based", "conditions": "for mRNA for gamma-globin (increase compared with untreated control erythroid precursors): rapamycin 3 μM, hydroxyurea 120 μM, control = 1", "source_text": "In order to check whether rapamycin was capable, in addition to inducing K562 cell differentiation, of stimulating the production of mRNA for gamma-globin in human erythroid precursors isolated from peripheral blood, the technique published by Fibach et al. (19, 20) was used. This technique provides for two stages: in the first stage, the cells isolated from peripheral blood of a subject who is healthy or suffering from a haemopoietic pathology, such as sickle cell anaemia or beta-thalassaemia, are sown in a culture medium to which 10% of conditioned medium derived from the vesicle carcinoma cell line 5637 has been added. The second stage consists in cultivating the isolated cells in a suitable culture medium, supplemented by the erythropoietin hormone, 30% foetal bovine serum, 2-mercaptoethanol, albumin, glutamine and desamethasone in order to permit the proliferation and maturing of stem cells of the erythroid type. In this stage the cells can be treated with potential HbF inducers."}, "human cell line K562 [2]": {"test_system": "human cell line K562", "experiment": "Erythroid differentiation of K562 cells (benzidine-positive cells)", "conditions": "20 nM, mean ± SD of 6 experiments, control 4.1%", "experimental": "(§1) The level of differentiation was evaluated by analysing the positive reaction of the cells to benzidine (3). […] The production of haemoglobin was evaluated by electrophoresis on cellulose acetate and by staining the gel with a solution based on benzidine/H2O2 (3). […] The expression of genes coding for gamma-globins was evaluated by quantitative RT-PCR (reverse transcriptase PCR) (3)."}, "human cell cultures": {"test_system": "human cell cultures", "experiment": "Cytotoxic effect in human cell cultures", "assay_type": "cell-based", "conditions": "compared with hydroxyurea", "protocol": "The activity of rapamycin as an inducer of erythroid cell differentiation and the production of mRNA for gamma-globin was evaluated in human cell cultures. The results of this study are illustrated in the Tables given in the section relating to the Examples."}, "mRNA for gamma-globin [3]": {"test_system": "mRNA for gamma-globin", "experiment": "Quantitative RT-PCR of mRNA for gamma-globin in K562 cells", "assay_type": "cell-based, human", "conditions": "20 nM, 6 days of induction, control = 1", "experimental": "as §1"}, "human cell line K562 [4]": {"test_system": "human cell line K562", "experiment": "Haemoglobin production in K562 cells by electrophoresis on cellulose acetate and benzidine/H2O2 staining", "assay_type": "cell-based", "conditions": "K562 cells treated with rapamycin", "experimental": "as §1"}},
  "data": [
    {"smiles": "NC(=O)NO", "note": "[Hydroxyurea, hydroxyurea]", "values": [
      {"measurement": "mRNA for gamma-globin (increase compared with untreated control erythroid precursors)", "setting": "mRNA for gamma-globin [1]", "result": 2.25}
    ]},
    {"smiles": "CO[C@H]1C[C@@H]2CC[C@@H](C)[C@@](O)(O2)C(=O)C(=O)N2CCCC[C@H]2C(=O)O[C@H]([C@H](C)C[C@@H]2CC[C@@H](O)[C@H](OC)C2)CC(=O)[C@H](C)/C=C(\\C)[C@@H](O)[C@@H](OC)C(=O)[C@H](C)C[C@H](C)/C=C/C=C/C=C/1C", "note": "[Rapamycin, rapamycin]", "values": [
      {"measurement": "Erythroid differentiation = percentage of K562 cells that react positively to benzidine", "setting": "human cell line K562 [2]", "result": "45.5 ± 5.8", "unit": "%"},
      {"measurement": "Erythroid differentiation = percentage of K562 cells that react positively to benzidine", "setting": "human cell line K562 [2]; listed as rapamycin", "result": "40-45%"},
      {"measurement": "Cytotoxic effect", "setting": "human cell cultures", "result": "much lower than that of hydroxyurea"},
      {"measurement": "Increase in the production of mRNA for gamma-globin compared with the same untreated cells", "setting": "mRNA for gamma-globin [1]", "result": 3.75, "unit": "times"},
      {"measurement": "mRNA for gamma-globin (increase compared with untreated control erythroid precursors)", "setting": "mRNA for gamma-globin [1]", "result": 3.73},
      {"measurement": "mRNA for gamma-globin (increase compared with untreated control K562 cells)", "setting": "mRNA for gamma-globin [3]", "result": 2.4},
      {"measurement": "Chief haemoglobin produced", "setting": "human cell line K562 [4]", "result": "Hb Portland (alpha2gamma2)"}
    ]}
  ]
}
